Reference: patent publication US8889708B2 (Boehringer Ingelheim International GmbH, priority 2013, dated 2014)

Legend:
[1] = system: Neutrophil elastase activity in U937 cells; assay: Neutrophil elastase activity in U937 cytosolic lysate after incubation with test compound; type: cell-based; details: Homo sapiens, U-937, U937 cells incubated 48 hours with compound, read-out: Reduction of NE-activity in U937 cells IC50
Description: Determination of Neutrophil Elastase Activity in U937 Cytosolic Lysate Preparation after Incubation with Test Compound
Optiplate 384F were purchased from PerkinElmer (Prod. No. #6007270). 24well Nunclon cell culture plates (No. 142475) and 96well plates (No. 267245) were from Nunc. Dimethylsulfoxid (DMSO) was from Sigma (Prod. No. D8418). Nonidet-P40 (NP40) was from USBiological (Prod. No. N3500)
Substrate, specific for Neutrophil elastase, was from Bachem (MeOSuc-Ala-Ala-Pro-Val-AMC; Prod. No. I-1270).
Human neutrophil elastase was from Calbiochem (Prod. No. 324681)
Tris-buffer (100 mM Tris; 1M NaCL; pH 7.5)
Tris-buffer+HSA 0.1%; Human Serum Albumin from Calbiochem (Cat#. 126658)
Serine-protease buffer (20 mM Tris; 100 mM NaCL; pH 7.5)+0.1% HSA
Serine protease lysis buffer: 20 mM Tris-HCL; 100 mM NaCl pH 7.5; +0.2% Nonidet-P40;
PBS: phosphate buffered saline, without Ca and Mg, from Gibco
U937 from ECACC (Cat. No. 85011440) cultured in suspension at 37° C. and 5% CO2.
Cell density: 0.2-1 Mio. Cells/ml.
Medium: RPMI1640 GlutaMAX (No. 61870) with 10% FCS from Gibco
Cell Seeding and Treatment:
Compounds in 100% DMSO were diluted in Medium (—FCS) with 10% DMSO and further diluted according to the experiment planned.
20 μl of the compound solution was transferred in the respective wells of the 24 well plate and diluted with 2 ml cell suspension/well containing […] (final concentration of DMSO=0.1%). Compound dilution factor=100
Compounds (up to 7 concentrations) were tested in triplicates with 3 wells for the DMSO 0.1% control, incubatet for 48 hours without medium change at 37° C., 5% CO2 and 95% relative humidity.
Cell Harvesting and Cell Lysate:
Transfer the cell suspension in 2.2 ml Eppendorf cups. Separate cells from medium by centrifugation (400×g; 5 min; RT); discard the supernatant. Resuspend in 1 ml PBS; centrifugation (400×g; 5 min; RT); wash cells twice with PBS. Add 100 μl Serin lysis buffer (ice cold) to the cell pellet; resuspend the pellet and store on ice for 15 minutes. Remove debris by centrifugation at 15000×g for 10 min at 4° C. Transfer 80-100 μl lysate supernatant in 96well plate and store immediately at −80° C.
Neutrophil Elastase Activity Assay:
Frozen lysates were thawn at 37° C. for 10 minutes and stored on ice. Protein content was determined with Bradford protein assay. Lysates were diluted to 0.2-0.5 mg/ml protein in serine protease buffer+HSA.
Standard: NE ([…] stocksolution in Tris-buffer; stored at −80° C.) was diluted in Tris-buffer+HSA to 750 ng/ml, and further serially diluted 1:2 for the standard curve.
Buffer, blank, standard and lysate samples were transferred into 384 well plate
Blank: 5 μl Tris-buffer+10 μl Tris-buffer+HSA+5 μl Substrate
Standard: 5 μl Tris-buffer+10 μl NE (diff.conc.)+5 μl Substrate
Lysate: 5 μl Tris-buffer+10 μl Lysat+5 μl Substrate
The increase in fluorescence (Ex360 nm/Em 460 nm) is determined over 30 minutes with a Molecular Device Spectramax M5 Fluorescence Reader. Kinetic Reduction (Vmax units/sec); 4 vmax points. The amount of neutrophil elastase (ng/ml) is calculated using the standard curve and the Spectramax software. The result is interpolated to ng/mg lysate protein using excel formula functions. Percent inhibition in the compound-treated lysate samples is calculated relative to the DMSO-treated control-sample (100−(compound-sample*100)/control-sample)
IC50 is calculated using Graphpad Prism; nonlinear fitting (log(inhibitor) vs. response—Variable slope).

[2] = Metabolic stability with human liver microsomes; type: in vitro ADME; details: pH 7.6; pooled human liver microsomes, 37° C., 1 μM test compound, 1 mg/ml protein, NADPH; read-out: In vitro stability in human liver microsome incubations t½
Description: Determination of Metabolic Stability with Human Liver Microsomes
The metabolic degradation of the test compound is assayed at 37° C. with pooled human liver microsomes. The final incubation volume of 100 μl per time point contains TRIS buffer pH 7.6 (0.1 M), magnesium chloride (5 mM), microsomal protein (1 mg/ml) and the test compound at a final concentration of 1 μM. Following a short preincubation period at 37° C., the reactions are initiated by addition of beta-nicotinamide adenine dinucleotide phosphate, reduced form (NADPH, 1 mM) and terminated by transferring an aliquot into acetonitrile after different time points. Additionally, the NADPH-independent degradation is monitored in incubations without NADPH, terminated at the last time point. The [%] remaining test compound after NADPH independent incubation is reflected by the parameter c(control) (metabolic stability). The quenched incubations are pelleted by centrifugation (10,000 g, 5 min). An aliquot of the supernatant is assayed by LC-MS/MS for the amount of parent compound.
The half-life (t½ INVITRO) is determined by the slope of the semilogarithmic plot of the concentration-time profile. The intrinsic clearance (CL_[…]) is calculated by considering the amount of protein in the incubation: CL_[…][μl/min/mg protein]=(ln 2/(half-life[min]*protein content[mg/ml]))*1,000.

[3] = biological target: recombinant human DPPI (Homo sapiens (Human), UniProt P53634); assay: Inhibition of Human DPPI (Cathepsin C); type: biochemical; details: substrate Gly-Arg-AMC, 30 min room temperature
Chain of recombinant human DPPI (P53634 231-394): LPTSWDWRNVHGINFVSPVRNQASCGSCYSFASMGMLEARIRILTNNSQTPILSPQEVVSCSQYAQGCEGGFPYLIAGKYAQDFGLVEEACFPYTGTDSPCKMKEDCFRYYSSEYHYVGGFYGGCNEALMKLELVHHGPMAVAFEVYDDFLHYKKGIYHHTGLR
Chain of recombinant human DPPI (P53634 395-463): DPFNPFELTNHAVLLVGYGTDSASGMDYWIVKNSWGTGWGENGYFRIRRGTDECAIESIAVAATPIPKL
Chain of recombinant human DPPI (P53634 25-134): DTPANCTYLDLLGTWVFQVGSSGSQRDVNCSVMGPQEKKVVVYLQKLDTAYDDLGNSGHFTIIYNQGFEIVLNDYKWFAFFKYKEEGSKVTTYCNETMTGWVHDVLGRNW
From the text: Inhibition of Human DPPI (Cathepsin C)
Materials: Microtiterplates (Optiplate-384 F) were purchased from PerkinElmer (Prod. No. 6007270). The substrate Gly-Arg-AMC was from Biotrend (Prod.-No. 808756 Custom peptide). Bovine serum albumin (BSA; Prod. No. A3059) and Dithiothreitol (DTT; Prod. No D0632) were from Sigma. TagZyme buffer was from Riedel-de-Haen (Prod.-No. 04269), NaCl was from Merck (Prod.-No. 1.06404.1000) and morpholinoethane sulfonic acid (MES), was from Serva (Prod.-No. 29834). The DPP1 inhibitor Gly-Phe-DMK was purchased from MP Biomedicals (Prod.-No. 03DK00625). The recombinant human DPPI was purchased from Prozymex. All other materials were of highest grade commercially available.
The following buffers were used: MES buffer: 25 mM MES, 50 mM NaCl, 5 mM DTT, adjusted to pH 6.0, containing 0.1% BSA; TAGZyme Buffer: 20 mM NaH2PO4, 150 mM NaCl adjusted to pH 6.0 with HCl
The recombinant human DPPI was diluted in TAGZyme buffer to 1 U/ml (38.1 μg/ml, respectively), and then activated by mixing in a 1:2 ratio with a Cysteamine aqueous solution (2 mM) and incubating for 5 min at room temperature.
Five uL test compound (final concentration 0.1 nM to 100 μM) in aqua bidest (containing 4% DMSO, final DMSO concentration 1%) were mixed with 10 μL of DPPI in MES buffer (final concentration 0.0125 ng/μL) and incubated for 10 min. Then, 5 μL of substrate in MES buffer (final concentration 50 μM) were added. The microtiter plates were then incubated at room temperature for 30 min. Then, the reaction was stopped by adding 10 μL of Gly-Phe-DMK in MES-buffer (final concentration 1 μM). The fluorescence in the wells was determined using a Molecular Devices SpectraMax M5 Fluorescence Reader (Ex 360 nm, Em 460 nm) or an Envision Fluorescence Reader (Ex 355 nm, Em 460 nm).
Each assay microtiter plate contained wells with vehicle controls (1% DMSO in bidest+0.075% BSA) as reference for non-inhibited enzyme activity (100% Ctl; high values) and wells with inhibitor (Gly-Phe-DMK, in bidest+1% DMSO+0.075% BSA, final concentration 1 μM) as controls for background fluorescence (0% Ctl; low values).
The analysis of the data was performed by calculating the percentage of fluorescence in the presence of test compound in comparison to the fluorescence of the vehicle control after subtracting the background fluorescence using the following formula: (RFU(sample)−RFU(background))*100/(RFU(control)−RFU(background))
Data from these calculations were used to generate IC50 values for inhibition of DPPI, respectively.

[4] = biological target: recombinant human Cathepsin K (Homo sapiens (Human), UniProt P43235); assay: Inhibition of Human Cathepsin K; type: biochemical; details: substrate Z-Gly-Pro-Arg-AMC, 60 min room temperature
Chain of recombinant human Cathepsin K (P43235 115-329): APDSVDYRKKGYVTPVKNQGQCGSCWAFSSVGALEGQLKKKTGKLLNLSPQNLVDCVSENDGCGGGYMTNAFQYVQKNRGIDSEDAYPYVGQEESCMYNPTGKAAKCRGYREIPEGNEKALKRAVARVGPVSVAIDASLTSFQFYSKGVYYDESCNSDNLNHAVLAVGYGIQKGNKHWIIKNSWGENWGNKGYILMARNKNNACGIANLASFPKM
From the text: Inhibition of Human Cathepsin K Materials: Microtiterplates (Optiplate-384 F were purchased from PerkinElmer (Prod. No. 6007270). The substrate Z-Gly-Pro-Arg-AMC was from Biomol (Prod.-No. P-142). L-Cysteine (Prod. No. 168149) was from Sigma. Sodium actetate was from Merck (Prod.-No. 6268.0250), EDTA was from Fluka (Prod.-No. 03680). The inhibitor E-64 was purchased from Sigma (Prod.-No. E3132). The recombinant human Cathepsin K proenzyme was purchased from Biomol (Prod. No. SE-367). All other materials were of highest grade commercially available.
The following buffers were used: Activation buffer: 32.5 mM sodium acetate, adjusted to pH 3.5 with HCl; Assay buffer: 150 mM sodium acetate, 4 mM EDTA, 20 mM L-Cysteine, adjusted to pH 5.5 with HCl,
To activate the proenzyme, 5 μl procathepsin K were mixed with 1 ul activation buffer, and incubated at room temperature for 30 min.
5 μL test compound (final concentration 0.1 nM to 100 μM) in aqua bidest (containing 4% DMSO, final DMSO concentration 1%) were mixed with 10 uL of Cathepsin K in assay buffer (final concentration 2 ng/μL) and incubated for 10 min. Then 5 μL of substrate in assay buffer (final concentration 12.5 μM) were added. The plates were then incubated at room temperature for 60 min. Then, the reaction was stopped by adding 10 μL of E64 in assay buffer (final concentration 1 μM). The fluorescence in the wells was determined using a Molecular Devices SpectraMax M5 Fluorescence Reader (Ex 360 nm, Em 460 nm).
Each assay microtiter plate contains wells with vehicle controls (1% DMSO in bidest) as reference for non-inhibited enzyme activity (100% Ctl; high values) and wells with inhibitor (E64 in bidest+1% DMSO, final concentration 1 μM) as controls for background fluorescence (0% Ctl; low values). The analysis of the data was performed by calculating the percentage of fluorescence in the presence of test compound in comparison to the fluorescence of the vehicle control after subtracting the background fluorescence: (RFU(sample)−RFU(background))*100/(RFU(control)−RFU(background))
Data from these calculations were used to generate IC50 values for inhibition of Cathepsin K, respectively.

Row | SMILES | IC50 [1] | half-life at 1 μM [2] | IC50 [3] | IC50 [4]
1 | CS(=O)(=O)c1cc(-c2ccc(C[C@@H](C#N)NC(=O)C34CCC(CC3)CN4)c(F)c2)ccc1C#N [Example 1] | 0.064 µM | > 2.17 h | – | –
2 | CN(C)S(=O)(=O)c1cccc(-c2ccc(C[C@@H](C#N)NC(=O)C34CCC(CC3)CN4)c(F)c2)c1 [Example 30] | – | 0.417 h | 0.0067 µM | –
3 | CN1C(=O)Cc2ccc(-c3ccc(C[C@@H](C#N)NC(=O)[C@]45CCC[C@@H](CN4)C5)cc3)cc21 [Example 12] | – | – | 0.428 µM | –
4 | CS(=O)(=O)c1cc(-c2ccc(C[C@@H](C#N)NC(=O)[C@]34CCC[C@@H](CN3)C4)cc2)ccc1C#N [Example 16] | – | – | 1.22 µM | –
5 | CN1C(=O)Cc2ccc(-c3ccc(C[C@@H](C#N)NC(=O)[C@]45CC[C@@H](CN4)C5)cc3)cc21 [Example 7] | – | – | 0.204 µM | –
6 | CN1C(=O)Cc2ccc(-c3ccc(C[C@@H](C#N)NC(=O)[C@@]45CC[C@H](CN4)C5)cc3)cc21 [Example 8] | – | – | 0.221 µM | –
7 | CN1Cc2ccc(-c3ccc(C[C@@H](C#N)NC(=O)C45CCC(CC4)CN5)c(F)c3)cc2C1 [Example 19] | – | – | 0.0381 µM | –
8 | CN1C(=O)Cc2ccc(-c3ccc(C[C@@H](C#N)NC(=O)[C@@]45CCO[C@@H](CN4)C5)cc3)cc21 [Example 5] | – | – | 0.0503 µM | > 30 µM
9 | CN1C(=O)Cc2ccc(-c3ccc(C[C@@H](C#N)NC(=O)C45CCOC(CCN4)C5)cc3)cc21 (stereo partly drawn) [Example 9] | – | – | 0.228 µM | –
10 | CS(=O)(=O)c1cc(-c2ccc(C[C@@H](C#N)NC(=O)[C@@]34CCO[C@@H](CN3)C4)cc2)ccc1C#N [Example 6] | – | – | 0.202 µM | –
11 | CS(=O)(=O)c1ccc(-c2ccc(C[C@@H](C#N)NC(=O)C34CCC(CC3)CN4)c(F)c2)cc1C#N [Example 18] | 0.074 µM | > 2.17 h | 0.015 µM | –
12 | CS(=O)(=O)c1cc(-c2ccc(C[C@@H](C#N)NC(=O)[C@]34CC[C@@H](CN3)C4)cc2)ccc1C#N [Example 14] | – | – | 0.649 µM | –
13 | CS(=O)(=O)c1cc(-c2ccc(C[C@@H](C#N)NC(=O)[C@@]34CC[C@H](CN3)C4)cc2)ccc1C#N [Example 10] | – | – | 0.283 µM | –
14 | N#C[C@H](Cc1ccc(-c2cccc(C(N)=O)c2)cc1F)NC(=O)C12CCC(CC1)CN2 [Example 24] | 0.114 µM | > 2.17 h | 0.0112 µM | –
15 | CN1C(=O)C(C)(C)c2ccc(-c3ccc(C[C@@H](C#N)NC(=O)C45CCC(CC4)CN5)c(F)c3)cc21 [Example 25] | – | – | 0.0407 µM | –
16 | N#C[C@H](Cc1ccc(-c2cnn(CC3CCOCC3)c2)cc1F)NC(=O)C12CCC(CC1)CN2 [Example 29] | 0.058 µM | > 2.17 h | 0.0202 µM | –
17 | N#Cc1ccc(-c2ccc(C[C@@H](C#N)NC(=O)C34CCC(CC3)N4)cc2)cc1F [Example 11] | – | > 2.17 h | 0.284 µM | –
